Measurements as given in paper PMC6789782, “Safety Pharmacological Evaluation of the Coffee Component, Caffeoylquinic Acid, and Its Metabolites, Using Ex Vivo and In Vitro Profiling Assays” (Pharmaceuticals, 2019).

What was measured:
[1] = test system: isolated perfused guinea pig heart; experiment: Langendorff perfused heart assay
Description: After injection of heparin sodium (100 unit/body, AY Pharmaceuticals Co., Ltd.) into the jugular vein, the animals were exsanguinated. […] A stainless-steel cannula was inserted in the aorta, followed by attachment to the Langendorff apparatus (Physio-Tech Co., Ltd., Tokyo, Japan). The attached heart was perfused with KH solution at 37.0 ± 0.2 °C. Before use, the KH solution was aerated by a gas mixture (95%O2 + 5%CO2) for 30 min or longer. The perfusion pressure was maintained at 70 mmHg.
DMSO solutions at 1, 10, and 100 mM were diluted 1000-fold with the KH solution to make test solutions of 1, 10, and 100 μM, respectively. The test solutions were cumulatively applied at a flow rate of 20 mL/min for 10 min with each concentration.
An ECG signal was recorded using electrodes fixed on the ventricular apex (+), and a stainless-steel cannula was inserted in the aorta (−), and LVP was recorded from the balloon catheter placed in the left ventricle. The ECG signals were amplified with an amplifier (DAM50; World Precision Instruments, Inc.) and LVPs were monitored with a Pressure Monitor 4 (Living Systems Instrumentation). Both of the waveforms were recorded with computer software (1000 Hz; iox2 and ecgAUTO3; emka Technologies).
Before measurement, the in-balloon pressure was adjusted so that the diastolic blood pressure would be in the range of 0 to 10 mmHg. The cardiac parameters, such as HR, PR interval, QRS duration, QT interval, QTc interval (Fridericia’s formula: QTc = QT/RR^1/3), LVPSP, left-ventricular end diastolic pressure (LVEDP), and LV dP/dt max, were measured.
Data are expressed as mean (± SD). The measured % changes from the pre-application value were used for analyses. Williams test was carried out between the solvent-control and test compound. Student’s t-test was carried out between the solvent-control and positive-control. […] The data from the solvent control and drug groups were tested by F test for homogeneity of variance. F test was performed at the significance level of 5%. When the variances were homogeneous, Student’s t-test was subsequently performed. When the variances were nonhomogeneous, Welch t-test was selected.

[2] = test system: peristaltic movement; set-up: method as in earlier work; details: ref review reports on the Pharmaceuticals and Medical Devices Agency website; cited from earlier work
[3] = cited from earlier work
[4] = test system: rat hippocampal slices; experiment: Electrophysiological assay of hippocampal slices, population spike (PS) recording
Description: All animals were housed and used in accordance with the French and European legislations for animal care. Rats (Janvier Labs, Le Genest-Saint-Isle, France) were euthanized by fast decapitation, without prior anesthesia. The brain was quickly removed and soaked in ice-cold oxygenated buffer containing KCl 2 mM, NaH2PO4 1.2 mM, MgCl2 7 mM, CaCl2 0.5 mM, NaHCO3 26 mM, glucose 11 mM, and sucrose 250 mM. […] During the experiments, slices were perfused with oxygenated artificial cerebrospinal fluid at 37 °C at a rate of 3 mL/min. The tested slice numbers were > 2 for 100 µM, > 4 for 10 µM, and > 6 for 1 µM (follow-up study). All experiments were carried out with 3-dimensional multielectrode array (Qwane Biosciences S.A., Lausanne, Switzerland) and data were recorded with a commercially available multielectrode array set-up from MultiChannel Systems (MCS GmbH, Reutlingen, Germany).
A hippocampal slice was placed on the multielectrode array (100 μm distant electrodes). One electrode was chosen to stimulate schaffer collaterals (SC) at the CA1 border. The stimulus in a monopolar biphasic current pulse (−300 μA for 60 μs followed by +300 μA for 60 μs) was applied at 30-s intervals. An Input/Output (I/O) curve was derived before each experiment to determine the stimulation intensity. Basal stimulation intensity was then set to 100 μA higher than the minimal intensity necessary to induce PS in the pyramidal cell layer.
Then, 1 μM bicuculline, the antagonist of GABAA, was applied in the continuous presence of the compound for an additional 40-min. Control bicuculline slices were recorded in parallel and after 50 min of control recording, 1 μM bicuculline was applied for a 40-min period.
Normalized PS AUC was averaged by slices for each experiment carried out in the same conditions. PS AUC (± SEM) is expressed as a function of time. The number of PS oscillations induced at the end of the bicuculline-exposure period was determined for each electrode and averaged by slices. The results are presented as mean of the last 2 min of application. Statistical significance was measured using two-way ANOVA analysis with Sidak’s multiple comparisons test, except for the 100 µM concentration because of its small slice number.

[5] = test system: rat hippocampal slices; experiment: Electrophysiological assay of hippocampal slices, epileptiform discharge (ED) recording; details: ± SEM
Description: A hippocampal slice was placed on the multielectrode array (200 μm distant electrodes) to ensure the multi-electrode grid covered the major surface of the slice. […]
ED frequency (in Hz) was determined as follows: raw data were filtered with a Low Pass filter (Butterworth second order filter) set to 20 Hz. ED number was monitored on-line (epileptiform event amplitudes had to be higher than 15 μV to be counted; a dead time of 200 ms was applied for each epileptiform event detected). ED frequency was averaged using 30-s time intervals. Results are presented as mean frequency of ED for the last 2 min of each condition (± SEM).

[6] = laboratory background data of drugs, n = 3
[7] = within the existing concentration range of each drug, laboratory background data

| Structure (SMILES) | Lowest concentration indicating statistically significant % change to solvent control, HR [1, 6] [µM] | Lowest concentration indicating statistically significant % change to solvent control, LVPSP [1, 6] [µM] | Lowest concentration indicating statistically significant % change to solvent control, PR [1, 6] [µM] | Lowest concentration indicating statistically significant % change to solvent control, QRS [1, 6] [µM] | Lowest concentration indicating statistically significant % change to solvent control, QT [1, 6] [µM] | Lowest concentration indicating statistically significant % change to solvent control, QTc [1, 6] [µM] | EfTPC (effective free therapeutic plasma concentration) [3] | Lowest concentration indicating statistically significant % change to solvent control, LV dP/dtmax [1, 6] [µM] | Maximum % change in LV dP/dt max [1, 7] [%] | other results |
| --- | --- | --- | --- | --- | --- | --- | --- | --- | --- | --- |
| O=C(O[C@@H]1C[C@@H]2C[C@H]3C[C@H](C1)N2CC3=O)c1c[nH]c2ccccc12 [Dolasetron] | 1 | 1 | 1 | 3 | – | – | – | – | – | Lowest concentration indicating statistically significant % change to solvent control, LV dP/dtmax ([1]; Hartley, guinea pig): 1 µM; Lowest concentration indicating statistically significant % change to solvent control, QT ([1]; Hartley, guinea pig): 1 µM; Lowest concentration indicating statistically significant % change to solvent control, QTc ([1]; Hartley, guinea pig): 1 µM; Maximum % change in PR interval [1, 7]: 106.9% |
| CN(CCOc1ccc(NS(C)(=O)=O)cc1)CCc1ccc(NS(C)(=O)=O)cc1 [Dofetilide] | 0.001 | 0.03 | 0.01 | – | 0.001 | 0.001 | – | – | – | Maximum % change in QT interval [1, 7]: 33.5% |
| Nc1nnc(-c2cccc(Cl)c2Cl)c(N)n1 [Lamotrigine] | – | – | – | – | – | – | – | – | – | Concentration at which peristaltic movement was reduced [2]: 300 nM |
| C=C[C@H]1C[N@@]2CC[C@H]1C[C@H]2[C@H](O)c1ccnc2ccc(OC)cc12 [Quinine] | 1 | 1 | 3 | 3 | 1 | 1 | 21.577 [25] µM | 1 | −77.3 | Lowest concentration indicating statistically significant % change to solvent control, LVEDP [1, 6]: 30 µM |
| CN1CCc2cc3c(cc2[C@H]1[C@@H]1OC(=O)c2c1ccc1c2OCO1)OCO3 [bicuculline, reference compound] | – | – | – | – | – | – | – | – | – | Additional spike number ([4]; 1 μM alone, single stimulation, control slices): 1.32 ± 0.32; Additional spike number ([4]; follow-up test, 1 μM bicuculline control slices): 1.47 ± 0.18 |
| Cc1nccn1CC1CCc2c(c3ccccc3n2C)C1=O (stereo not shown) [Ondansetron] | 1 | 1 | 10 | 10 | 1 | 1 | 1.023 [25] µM | 1 | −47.4 | Lowest concentration indicating statistically significant % change to solvent control, LVEDP [1, 6]: 1 µM |
| Nc1ccncc1 [4-AP, 4-aminopyridine, reference compound] | – | – | – | – | – | – | – | – | – | ED rate ([5]; 4-AP control slices (4-AP alone)): 0.38 ± 0.02 Hz; ED rate ([5]; follow-up test, 4-AP control slices): 0.38 ± 0.04 Hz |
| COc1c(N2C[C@@H]3CCCN[C@@H]3C2)c(F)cc2c(=O)c(C(=O)O)cn(C3CC3)c12 [Moxifloxacin] | 30 | 3 | 30 | 10 | 3 | 3 | 10.960 [26] µM | 100 | – | Maximum % change in QT interval [1, 7]: 29.3% |
| O=C(O)COCCN1CCN([C@H](c2ccccc2)c2ccc(Cl)cc2)CC1 [Levocetirizine] | – | – | – | – | – | – | – | – | −21.8 | – |
